This note sets out measurements from ChEMBL document CHEMBL3397025, “Guanine-based amphiphiles: synthesis, ion transport properties and biological activity” (Bioorg Med Chem, 2015).

One data set deals with MCF7. In words: Cytotoxicity against human MCF7 cells assessed as cell viability after 48 hrs by MTT assay. The conditions noted are these: MCF7, 48 h. It is filed as functional, cell-based.
The test system of a further data set is DU-145. The data set can be described thus: Cytotoxicity against human DU145 cells assessed as cell viability after 48 hrs by MTT assay. It counts as functional, cell-based. The following applies: DU-145, 48 h. For orientation: Tetrazolium assays rely on reduction of a dye to a coloured formazan, in cell work by metabolically active cells.
Data set [1] can be described thus: Cytotoxicity against human SH-SY5Y cells assessed as cell viability after 48 hrs by MTT assay. It is filed as functional, cell-based.
Another data set concerns HaCaT. In words: Cytotoxicity against human HaCaT cells assessed as cell viability after 48 hrs by MTT assay. It is filed as functional, cell-based.
Data set [2] can be described thus: Ionophoric activity in large unilamellar vesicles containing 95:5 egg phosphatidylcholine and egg phosphatidylglycerol assessed as fluorescence emission at 25 degC after 10 mins by HPTS assay in presence of Na+. It is filed as ADME.
Data set [3] in a line: Ionophoric activity in large unilamellar vesicles containing 95:5 egg phosphatidylcholine and egg phosphatidylglycerol assessed as fluorescence emission at 25 degC after 10 mins by HPTS assay in presence of K+. It counts as ADME.
Data set [4] is described as follows: Ionophoric activity in large unilamellar vesicles containing 95:5 egg phosphatidylcholine and egg phosphatidylglycerol assessed as fluorescence emission at 25 degC after 10 mins by HPTS assay in presence of F-. It is filed as ADME.
Data set [5] can be described thus: Ionophoric activity in large unilamellar vesicles containing 95:5 egg phosphatidylcholine and egg phosphatidylglycerol assessed as fluorescence emission at 25 degC after 10 mins by HPTS assay in presence of I-. It counts as ADME.
Data set [6] in a line: Ionophoric activity in large unilamellar vesicles containing 95:5 egg phosphatidylcholine and egg phosphatidylglycerol assessed as fluorescence emission at 25 degC after 10 mins by HPTS assay in presence of Cl-. It counts as ADME.
A short description of data set [7]: Ionophoric activity in large unilamellar vesicles containing 95:5 egg phosphatidylcholine and egg phosphatidylglycerol assessed as fluorescence emission at 25 degC after 10 mins by HPTS assay in presence of Br-. It counts as ADME.
Data set [8] is described as follows: Ionophoric activity in large unilamellar vesicles containing 95:5 egg phosphatidylcholine and egg phosphatidylglycerol assessed as fluorescence emission at 25 degC after 10 mins by HPTS assay in presence of Rb+. It is filed as ADME.
The nature of data set [9]: Ionophoric activity in large unilamellar vesicles containing 95:5 egg phosphatidylcholine and egg phosphatidylglycerol assessed as fluorescence emission at 25 degC after 10 mins by HPTS assay in presence of Li+. It counts as ADME.
Data set [10] is described as follows: Ionophoric activity in large unilamellar vesicles containing 95:5 egg phosphatidylcholine and egg phosphatidylglycerol assessed as fluorescence emission at 25 degC after 10 mins by HPTS assay in presence of Cs+. It is filed as ADME.

Molecules are shown by their SMILES.

The term IC50 denotes the midpoint of a concentration-inhibition curve.

Consider `COCCOCCOCCn1cnc2c(=O)[nH]c(N)nc21`, for which the IC50 (in the data set with MCF7; in the data set on DU-145; in [1]; in the data set with HaCaT) was over 100 µM each time. Besides, the Activity result in data set [2] and in data set [3] was “Not Active” throughout.

For the molecule `Nc1nc2c(ncn2C(=O)CCC(=O)OC[C@H]2O[C@H](O[C@H]3O[C@H](CO)[C@@H](O)[C@H](O)[C@H]3O)[C@H](O)[C@@H](O)[C@@H]2O)c(=O)[nH]1`, the IC50 in the data set with MCF7 stood at 1 µM; in the data set on DU-145 it was 25 µM; in [1], 5 µM; with HaCaT, 80 µM. Also, the outcome in data set [4], in data set [5], in [6], in data set [7], in data set [2] and in data set [8] was Active. The outcome in data set [9], in data set [10] and in data set [3] was Active.

As to `CCCCCCCCCCCCCC(=O)O[C@@H]1[C@H](OC(=O)CCCCCCCCCCCCC)[C@@H](COC(=O)CCC(=O)OC[C@H]2O[C@H](O[C@H]3O[C@H](CO)[C@@H](O)[C@H](O)[C@H]3O)[C@H](O)[C@@H](O)[C@@H]2O)O[C@H]1n1cnc2c(=O)[nH]c(N)nc21`, the IC50 in data set [1] stood at 17 µM.
